Data on one compound can be found in ChEMBL document CHEMBL5120822, “Inhibition of the P2X7/NLRP3 Inflammasome Signaling Pathway by Deacetylgedunin from Toona sinensis” (J Nat Prod, 2022).

In one series the test system is RAW264.7. The series can be described thus: Cytotoxicity against mouse RAW264.7 cells derived macrophage assessed as reduction in cell viability upto 40 uM incubated for 24 hrs by CCK-8 assay. The format is toxicity, cell-based. The following applies: raw264.7, 24 h. A general note: Formazan colour is commonly taken as a measure of viable cells.
Series [1] deals with THP-1. The series can be described thus: Cytotoxicity against human THP-1 cells derived macrophage assessed as reduction in cell viability upto 40 uM incubated for 24 hrs by CCK-8 assay. Type of series: toxicity, cell-based. The following applies: thp-1, 24 h.
Series [2] concerns THP-1. The series can be described thus: Cytotoxicity against human THP-1 cells assessed as survival rate at < 40 uM by CCK8 assay. The format is toxicity, cell-based. The conditions noted are these: thp-1, 40 µM.
In series [3] the target is NACHT, LRR and PYD domains-containing protein 3 (Homo sapiens) (UniProt Q96P20). The series can be described thus: Inhibition of NLRP3 inflammasome activation in PMA-differentiated and LPS/NIG-stimulated human THP-1 cells assessed as inhibition of IL-1beta secretion at 20 uM incubated for 1 hrs followed by LPS stimulation for 12 hrs and NIG addition for 2 hrs by ELISA. The format is cell-based. The conditions noted are these: time 15.0 hrs. (In general: ELISA stands for enzyme-linked immunosorbent assay.)

Series [4] deals with THP-1. The series can be described thus: Antiinflammatory activity against PMA-differentiated and LPS/ATP stimulated human THP-1 cells assessed as increase in cell viability at 5 to 20 uM incubated for 1 hrs followed by LPS stimulation for 12 hrs and ATP addition for 0.5 hrs by CCK8 assay. Type of series: functional, cell-based. The following applies: dose 5-20 µM, time 13.5 hrs.

In series [5] the target is NACHT, LRR and PYD domains-containing protein 3 (Homo sapiens) (UniProt Q96P20). The series can be described thus: Inhibition of NLRP3 inflammasome activation in PMA-differentiated and LPS/ATP-stimulated human THP-1 cells assessed as inhibition of IL-1beta secretion at 5 to 20 uM incubated for 1 hrs followed by LPS stimulation for 12 hrs and ATP addition for 0.5 hrs by ELISA. The format is cell-based. The conditions noted are these: dose 5-20 µM, time 13.5 hrs, DDE = dose-dependent effect.

For series [6] the target is unchanged. The series can be described thus: Inhibition of NLRP3 inflammasome activation in PMA-differentiated and LPS/ATP-stimulated human THP-1 cells assessed as decrease in caspase-1 expression at 5 to 20 uM incubated for 1 hrs followed by LPS stimulation for 12 hrs and ATP addition for 0.5 hrs by western blot analysis. The following applies: dose 5-20 µM, time 13.5 hrs. Type of series: cell-based. Background: In western blotting, separated proteins are transferred to a membrane and probed.

For series [7] the target is unchanged. The series can be described thus: Inhibition of NLRP3 inflammasome activation in PMA-differentiated and LPS/ATP-stimulated human THP-1 cells assessed as downregulation of NF-KappaB p65 subunit phosphorylation at 5 to 20 uM incubated for 1 hrs followed by LPS stimulation for 12 hrs and ATP addition for 0.5 hrs by Western blot analysis. The format is cell-based. The conditions noted are these: dose 5-20 µM, time 13.5 hrs.

For series [8] the target is unchanged. The series can be described thus: Inhibition of NLRP3 inflammasome activation in PMA-differentiated and LPS/ATP-stimulated human THP-1 cells assessed as reduction in total NF-KappaB P65 nuclear expression at 5 to 20 uM incubated for 1 hrs followed by LPS stimulation for 12 hrs and ATP addition for 0.5 hrs by Western blot analysis. The format is cell-based. The following applies: dose 5-20 µM, time 13.5 hrs.

Series [9] has the same target. The series can be described thus: Inhibition of NLRP3 inflammasome activation in PMA-differentiated and LPS/ATP-stimulated human THP-1 cells assessed as reduction in nuclear localization of NF-KappaB at 20 uM incubated for 1 hrs followed by LPS stimulation for 12 hrs and ATP addition for 0.5 hrs by DAPI staining based immunofluorescence analysis. The following applies: time 13.5 hrs. Type of series: cell-based.

For series [10] the target is unchanged. The series can be described thus: Inhibition of NLRP3 inflammasome activation in PMA-differentiated and LPS/NIG-stimulated human THP-1 cells assessed as decrease of ASC polymers at 20 uM incubated for 1 hrs followed by LPS stimulation for 12 hrs and NIG addition for 2 hrs by Western blot analysis. The format is cell-based. The following applies: time 15.0 hrs.

Series [11] shares this target. The series can be described thus: Inhibition of NLRP3 inflammasome activation in PMA-differentiated and LPS/ATP-stimulated human THP-1 cells assessed as assessed as increase in intracellular chloride concentration at 20 uM incubated for 1 hrs followed by LPS stimulation for 12 hrs and ATP addition for 0.5 hrs by MQAE staining based flow cytometry. Type of series: cell-based. The following applies: time 13.5 hrs.

Series [12] has the same target. The series can be described thus: Inhibition of NLRP3 inflammasome activation in PMA-differentiated and LPS/ATP-stimulated human THP-1 cells assessed as suppression of P2X7 expression at 5 to 20 uM incubated for 1 hrs followed by LPS stimulation for 12 hrs and ATP addition for 0.5 hrs by Western blot analysis. Type of series: cell-based. The conditions noted are these: dose 5-20 µM, time 13.5 hrs, DDE = dose-dependent effect.

Series [13] has the same target. The series can be described thus: Inhibition of NLRP3 inflammasome activation in LPS/ATP-induced human THP-1 cells assessed as suppression of P2X7 expression at 5 to 20 uM preincubated for 1 hrs followed by LPS for 12 hrs and ATP 0.5 hrs in presence of A438079 by Western blot analysis. The conditions noted are these: dose 5-20 µM, time 13.5 hrs. Type of series: cell-based.

Series [14] shares this target. The series can be described thus: Inhibition of NLRP3 inflammasome activation in PMA-differentiated and LPS/ATP-stimulated human THP-1 cells assessed as decrease in IL-1beta expression at 5 to 20 uM incubated for 1 hrs followed by LPS stimulation for 12 hrs and ATP addition for 0.5 hrs by western blot analysis. The format is cell-based. The following applies: dose 5-20 µM, time 13.5 hrs.

Series [15] has the same target. The series can be described thus: Inhibition of NLRP3 inflammasome activation in PMA-differentiated and LPS/NIG-stimulated human THP-1 cells assessed as decrease of ASC oligomerization at 20 uM incubated for 1 hrs followed by LPS stimulation for 12 hrs and NIG addition for 2 hrs by DAPI staining based immunofluorescence analysis. Type of series: cell-based. The conditions noted are these: time 15.0 hrs.

The subject of series [16] is THP-1. The series can be described thus: Antiinflammatory activity against PMA-differentiated and LPS/NIG stimulated human THP-1 cells assessed as increase in cell viability at 5 to 20 uM incubated for 1 hrs followed by LPS stimulation for 12 hrs and NIG addition for 2 hrs by CCK8 assay. Type of series: functional, cell-based. The conditions noted are these: dose 5-20 µM, time 15.0 hrs.

Series [17] has as its system THP-1. The series can be described thus: Antiinflammatory activity against PMA-differentiated and LPS/ATP stimulated human THP-1 cells assessed as increase in cell viability at 5 to 20 uM incubated for 1 hrs followed by LPS stimulation for 12 hrs and ATP addition for 0.5 hrs by LDH assay. The following applies: dose 5-20 µM, time 13.5 hrs. The format is functional, cell-based.

Series [18] has as its target NACHT, LRR and PYD domains-containing protein 3 (Homo sapiens) (UniProt Q96P20). The series can be described thus: Inhibition of NLRP3 inflammasome activation in PMA-differentiated and LPS/MSU-stimulated human THP-1 cells assessed as decrease in caspase-1 expression at 20 uM incubated for 1 hrs followed by LPS stimulation for 12 hrs and MSU addition for 6 hrs by western blot analysis. Type of series: cell-based. The following applies: time 19.0 hrs.

Series [19] has the same target. The series can be described thus: Inhibition of NLRP3 inflammasome activation in PMA-differentiated and LPS/MSU-stimulated human THP-1 cells assessed as decrease in pro-IL-1beta expression at 20 uM incubated for 1 hrs followed by LPS stimulation for 12 hrs and MSU addition for 6 hrs by western blot analysis. The format is cell-based. The conditions noted are these: time 19.0 hrs.

Series [20] has the same target. The series can be described thus: Inhibition of NLRP3 inflammasome activation in PMA-differentiated and LPS/NIG-stimulated human THP-1 cells assessed as decrease in IL-1beta expression at 20 uM incubated for 1 hrs followed by LPS stimulation for 12 hrs and NIG addition for 2 hrs by western blot analysis. The format is cell-based. The conditions noted are these: time 15.0 hrs.

The target is the same in series [21]. The series can be described thus: Inhibition of NLRP3 inflammasome activation in PMA-differentiated and LPS/NIG-stimulated human THP-1 cells assessed as decrease in pro-caspase-1 expression at 20 uM incubated for 1 hrs followed by LPS stimulation for 12 hrs and NIG addition for 2 hrs by western blot analysis. The format is cell-based. The conditions noted are these: time 15.0 hrs.

The target is the same in series [22]. The series can be described thus: Inhibition of NLRP3 inflammasome activation in PMA-differentiated and LPS/ATP-stimulated human THP-1 cells assessed as assessed as increase in potassium ion concentration at 5 to 20 uM incubated for 1 hrs followed by LPS stimulation for 12 hrs and ATP addition for 0.5 hrs by EPG-2 AM staining based confocal microscopy. The following applies: dose 5-20 µM, time 13.5 hrs. The format is cell-based.

A further series relates to J774.A1. The series can be described thus: Antiinflammatory activity against LPS/ATP-stimulated […] cells assessed as inhibition of ROS release at 20 uM incubated for 1 hrs followed by LPS stimulation for 12 hrs and ATP addition for 0.5 hrs by DCFH-DA staining based confocal microscopy. The conditions noted are these: Mus musculus, time 13.5 hrs. Type of series: functional, cell-based.

Active and inactive are the calls of the source. No cut-off for these calls is given here.

Chain of NACHT, LRR and PYD domains-containing protein 3 (Homo sapiens) (Q96P20 whole entry, the tested form may be a part): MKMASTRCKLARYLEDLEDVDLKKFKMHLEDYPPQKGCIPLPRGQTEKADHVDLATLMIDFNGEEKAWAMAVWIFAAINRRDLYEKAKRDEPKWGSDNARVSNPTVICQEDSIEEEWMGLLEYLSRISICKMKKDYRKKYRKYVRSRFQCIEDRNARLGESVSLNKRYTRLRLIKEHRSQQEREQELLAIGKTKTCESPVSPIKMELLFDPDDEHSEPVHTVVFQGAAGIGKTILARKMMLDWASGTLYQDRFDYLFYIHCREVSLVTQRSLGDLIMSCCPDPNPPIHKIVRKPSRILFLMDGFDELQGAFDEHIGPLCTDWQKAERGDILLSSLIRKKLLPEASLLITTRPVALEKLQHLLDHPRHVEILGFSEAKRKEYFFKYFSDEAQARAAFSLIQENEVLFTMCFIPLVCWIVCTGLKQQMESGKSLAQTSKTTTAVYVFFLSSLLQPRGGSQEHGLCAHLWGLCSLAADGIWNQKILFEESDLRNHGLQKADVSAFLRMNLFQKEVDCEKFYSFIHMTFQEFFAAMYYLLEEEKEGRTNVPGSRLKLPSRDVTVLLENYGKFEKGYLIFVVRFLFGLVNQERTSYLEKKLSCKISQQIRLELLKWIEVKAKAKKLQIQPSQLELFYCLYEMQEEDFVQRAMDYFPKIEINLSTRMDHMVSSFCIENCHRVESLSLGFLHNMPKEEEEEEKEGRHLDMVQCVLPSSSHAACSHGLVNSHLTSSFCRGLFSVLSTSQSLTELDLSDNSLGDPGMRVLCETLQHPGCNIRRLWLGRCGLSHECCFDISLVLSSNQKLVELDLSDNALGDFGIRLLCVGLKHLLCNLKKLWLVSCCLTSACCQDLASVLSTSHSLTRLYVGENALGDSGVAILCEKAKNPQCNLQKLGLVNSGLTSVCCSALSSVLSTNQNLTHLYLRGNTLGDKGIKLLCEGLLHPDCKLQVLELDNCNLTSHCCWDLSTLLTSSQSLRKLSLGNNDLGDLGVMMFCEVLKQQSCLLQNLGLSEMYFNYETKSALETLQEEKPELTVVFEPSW

With `CC1(C)C(=O)C=C[C@]2(C)[C@H]3CC[C@@]4(C)[C@H](c5ccoc5)OC(=O)[C@H]5O[C@]54[C@]3(C)[C@H](O)C[C@@H]12` [DEACETYLGEDUNIN], the Activity entry in the series with RAW264.7, with THP-1 [1] and in the series on THP-1 [2] was “Non-Toxic” in each case. The inhibition result in series [3], in [6], in series [7], in series [8], in series [9] and in series [10] was “Active” throughout. Besides, the inhibition result in [11], in series [13], in [14], in series [15], in series [18] and in series [19] was “Active” throughout. In addition, the inhibition entry in series [20], in [21] and in series [22] was “Active” in each case. The result in the series on THP-1 [4], with THP-1 [16], in the series with THP-1 [17] and in the series on J774.A1 was Active. Moreover, the inhibition result in series [5] and in series [12] was “Dde” in each case.
